Laboratory results published in US20030072816A1, “Agents improving skin barrier function” (priority 2000, published 2003).

Tested on: Human epidermal keratinocytes
Assay: Formation of CE in cultured keratinocytes (amount of CE by visual observation or count under a microscope)
Assay type: cell-based
Set-up: key: −: No CE formation; ++: CE formation in an amount equal to that in positive control (growth medium) is observed; +++: Clearly more CE formation than in positive control (growth medium) is observed
Conditions: test substance 3% in MEM containing 0.1% bovine serum albumin, cultured 1 week
Procedure: Human epidermal keratinocytes were cultured according to the method of Rheinwald & Green (Cell 6: 331-344, 1975). The cells were cultured in a growth medium (DMEM-Ham's F12 (3:1) containing 10% fetal bovine serum, 0.5 μg/ml hydrocortisone, 5 μg/ml insulin, 10^−10 M cholera toxin, 10 ng/ml epidermal growth factor and 1.8×10^−4 M adenine) up to confluent, the medium was replaced with a medium (MEM containing 0.1% bovine serum albumin) containing a test substance, and culturing was continued for further 1 week. After completion of the culturing, Tris-hydrochloric acid buffer containing dithiothreitol and sodium dodecyl sulfate was added, and the mixture was heated at 100° C. for 10 minutes. The insoluble substance was collected by centrifugation at 4,000 g for 10 minutes. The eluent addition and heating were repeated and thereby soluble components were thoroughly removed. The thus obtained insoluble substance was referred to as CE. The amount of the obtained CE was evaluated by visual observation. Otherwise, the number was counted under a microscope using a cytometer.

`CC(C)CCCC(C)CCCC(C)CCCCC(C)CCCC(C)CCCC(C)C` (stereo not shown) [Squalane] was tested, and the CE formation-accelerating effect was “−”.
